Tests used:
[1] = test system: normal human fibroblasts (NHDF) and stromal cells isolated from human normal bone marrow; experiment: Replicative lifespan (RLS) of normal cells in tissue culture; assay type: cell-based; conditions: normal fibroblasts and mesenchymal cells
Text: FIGS. 1A-1I provide graphs and images showing a new high throughput method for simultaneous detection of senescence associated SAβG activity and ATP in culture of normal pre-aged cells identified two potent anti-aging scaffolds. (A). General schema of HTS. (B). […] (C). Structures and corresponding tautameric forms of lead compounds. (D) Evaluation of possible genotoxic effect of experimental drugs in modified Ames test. 4-Nitroquinoline 1-oxide (4NQO) was used as a positive control. […] The general schema of RLS measurement in different cell types. (F) VA and N2N1 considerably extend RLS of normal human fibroblasts (NHDF) and stromal cells isolated from human normal bone marrow. (G). […] (I). Upper panel: Morphological appearance of NHDF at late passages with or without treatment. Lower panel: Cells were also fixed in para-formaldehyde and stained to detect SAβG.
The inventors developed a new high-throughput screening (HTS) method for identification of anti-aging drugs (FIG. 1). The novel method was specifically designed for simultaneous detection of β-galactosidase activity in cell lysate followed by ATP detection by standard luciferase based assay. […] Altogether, the procedure allowed a simultaneous quantifiable detection of senescence associated β-galactosidase (SAβG) activity and evaluation of ATP level as a sign of improved proliferative capacity or cytotoxicity. […]

HSC = experiment: Competitive repopulation assay, CD45.1/2 mouse model; assay type: in vivo; conditions: CD45.2 mice, one month in drinking water, ~2.0 mg/kg
Text: FIGS. 2A-2G provide graphs and images showing N2N1 and VA support HSC/progenitors populations under pressure of differentiation and tissue culture stress in vitro and in vivo. General schema of CFU (A) and LTC-IC assays (B). […] Representative result of three NBM is shown. (D) The morphology of cells at the end of 1st part of LTC-IC assay is shown. The total number of cells at this step of experiment was always larger in the samples treated with experimental drugs. (E) Treatment of mice with N2N1 promotes maintenance of normal HSC in vivo. Competitive repopulation assay performed on CD45.2 mice treated with N2N1. Summary of four animals, three hematopoietic tissues. […] Representative result of three patients is shown.
The potential positive impact of identified pro-survival catalysts on viability and propagation of HSC was evaluated in competitive repopulation assay based on CD45.1/2 mouse model, a “gold standard” for HSC performance.

cancer cell lines = experiment: Treatment of cancer cell lines; assay type: cell-based
[2] = test system: mitochondrial respiration rate; experiment: Mitochondrial respiration and glycolysis on Seahorse apparatus; assay type: cell-based; conditions: within few minutes or even hours after addition
Text: (§1) Based on results obtained on tissue cultured cells (increased RLS) and an increase in the numbers of HSC surrogate cells (LTC-IC or CFU), the inventors set their future goal to develop a novel pharmacological treatment for AA patients and potentially for other BMF. They have examined the most prominent features of cellular aging: telomere shortening, mitochondrial dysfunction or decline in respiratory capacity and shift in intracellular redox balance toward more oxidized environment. […] The only persistent effect of VA was considerable reduction in global protein disulfide bonds (up to 30%) detected by Elman's reagent or direct labelling of reduced sulfhydryl groups with biotin-switch assay (FIG. 3A). That brought the reductive hypothesis to the inventors' attention. The redox potential is controlled by sophisticated set of diverse enzymes and this system is fed from generation of NADPH by multiple hydrogenases (FIG. 3B). Among them, the glucose-6-phosphate dehydrogenase (G6P) is most important, because it controls the rate limiting step of pentose phosphate pathway. The other important dehydrogenases are isocytrate dehydrogenases (cytoplasmic and mitochondrial, IDH1/2) and 6-phosphogluconate dehydrogenase (6PG). The next anti-oxidant cellular protection layer is thioredoxin and glutathione systems (FIG. 3B). The first one is composed of thioredoxin reductase (TrxR) and thioredoxin. […]

normal fibroblasts = experiment: Telomere length in treated fibroblasts; assay type: cell-based
Text: as §1

[3] = test system: erythropoietin-dependent UT7 cells; experiment: Growth of erythropoietin-dependent UT7 cells; assay type: cell-based
[4] = test system: global protein disulfide bonds; experiment: Global protein disulfide bonds (Elman's reagent, biotin-switch assay); assay type: cell-based; conditions: Elman's reagent or biotin-switch assay
Text: FIGS. 3A-3C provide graphs and schemes showing the preliminary data that directed the plan to find the mechanism of action of identified anti-aging compounds. (A) Substantial decrease in oxidized sulfhydryl groups were detected after several days of treatment with VA. […] The inventors decided to check if VA can participate in catalytic reactions performed by the enzymes involved in generation of reductive potential or its utilization by transferring the electrons to oxidized disulfide bonds t. […] In particular, catalytic reduction of molecular oxygen and cytochrome c was observed. Therefore, the inventors decided to take into account the most prominent enzymes that were noted to be involved into initiation or prevention aging-like traits.
Based on results obtained on tissue cultured cells (increased RLS) and an increase in the numbers of HSC surrogate cells (LTC-IC or CFU), the inventors set their future goal to develop a novel pharmacological treatment for AA patients and potentially for other BMF. […] The only persistent effect of VA was considerable reduction in global protein disulfide bonds (up to 30%) detected by Elman's reagent or direct labelling of reduced sulfhydryl groups with biotin-switch assay (FIG. 3A). […]

Compound | expansion above regular replicative life span [1] | HSC number / repopulation capacity (HSC) | toxicity / proliferation (cancer cell lines) | immediate response in mitochondrial respiration rate or glycolysis efficacy [2] | telomere length (normal fibroblasts) | growth support [3] | reduction in global protein disulfide bonds [4]
O=C1/C(=N/O)C=Cc2ccccc21 [N2N1, 1-naphthoquinone-2-monoxime] | ~25 doublings | increased number of HSC or/and increased repopulation capacity | partially toxic | could not detect any immediate | maintenance of telomere length was observed | – | –
O=C1NC(=O)C(=NO)C(=O)N1 [VA, 2,4,5,6(1H,3H)-pyrimidine-tetrone 5-oxime] | ~25 doublings | – | neither toxic nor pro-proliferative | could not detect any immediate | maintenance of telomere length was observed | does not support the growth | up to 30%
